Data as given in PubChem BioAssay (NCI).
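Following 48 hours of exposure in 96-well plates, responses at five concentrations were used to interpolate endpoints linearly. The concentration for full growth arrest is given as TGI.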

Experiments:
Experiment in all cases: NCI anticancer screen, dose series, 48 h
[1] = tested on: HCC-2998 colon
[2] = tested on: TK-10 renal
[3] = tested on: HOP-18 NSCLC
[4] = tested on: T-47D breast
[5] = tested on: SK-MEL-28 melanoma
[6] = tested on: SK-OV-3 ovarian
[7] = tested on: OVCAR-8 ovarian
[8] = tested on: COLO 205 colon
[9] = tested on: DU-145 prostate
[10] = tested on: UACC-62 melanoma
[11] = tested on: OVCAR-4 ovarian
[12] = tested on: LXFL 529 NSCLC
[13] = tested on: DLD-1 colon
[14] = tested on: HOP-62 NSCLC
[15] = tested on: 786-0 renal
[16] = tested on: KM20L2 colon
[17] = tested on: SF-295 CNS
[18] = tested on: HT29 colon
[19] = tested on: HCT-15 colon
[20] = tested on: SNB-19 CNS
[21] = tested on: MCF7 breast
[22] = tested on: MOLT-4 leukemia
[23] = tested on: MDA-MB-231 breast
[24] = tested on: NCI-H23 lung
[25] = tested on: MALME-3M melanoma
[26] = tested on: HL-60(TB) leukemia
[27] = tested on: OVCAR-5 ovarian
[28] = tested on: HS 578T breast
[29] = tested on: M14 melanoma
[30] = tested on: RXF 393 renal
[31] = tested on: UACC-257 melanoma
[32] = tested on: LOX IMVI melanoma
[33] = tested on: SK-MEL-5 melanoma
[34] = tested on: HOP-92 NSCLC
[35] = tested on: SR leukemia
[36] = tested on: XF 498 CNS
[37] = tested on: K-562 leukemia
[38] = tested on: UO-31 renal
[39] = tested on: HCT-116 colon
[40] = tested on: SF-539 CNS
[41] = tested on: SNB-75 CNS
[42] = tested on: ACHN renal
[43] = tested on: EKVX NSCLC
[44] = tested on: DMS 114 small cell lung
[45] = tested on: RPMI-8226 leukemia
[46] = tested on: SW-620 colon
[47] = tested on: A498 renal
[48] = tested on: PC-3 prostate
[49] = tested on: NCI-H460 lung
[50] = tested on: OVCAR-3 ovarian
[51] = tested on: BT-549 breast
[52] = tested on: SK-MEL-2 melanoma
[53] = tested on: IGROV1 ovarian
[54] = tested on: MDA-MB-435
[55] = tested on: NCI/ADR-RES ovarian
[56] = tested on: NCI-H522 lung
[57] = tested on: SN12C renal
[58] = tested on: MDA-N
[59] = tested on: CAKI-1 renal
[60] = tested on: NCI-H226 lung
[61] = tested on: CCRF-CEM leukemia
[62] = tested on: KM12 colon
[63] = tested on: U251 CNS
[64] = tested on: A549 NSCLC
[65] = tested on: SF-268 CNS
[66] = tested on: M19-MEL melanoma

COc1nc(NC2OC(COC(C)=O)C(OC(C)=O)C(OC(C)=O)C2OC(C)=O)c(N=CC=Nc2c(NC3OC(COC(C)=O)C(OC(C)=O)C(OC(C)=O)C3OC(C)=O)nc(OC)n(C)c2=O)c(=O)n1C (stereo unspecified)
TGI [1]: > 100 µM
TGI [2]: > 100 µM
TGI [3]: > 100 µM
TGI [4]: > 100 µM
TGI [5]: > 100 µM
TGI [6]: > 100 µM
TGI [7]: > 100 µM
TGI [8]: > 100 µM
TGI [9]: > 100 µM
TGI [10]: > 100 µM
TGI [11]: > 100 µM
TGI [12]: > 100 µM
TGI [13]: > 100 µM
TGI [14]: > 86.6 µM
TGI [15]: > 100 µM
TGI [16]: > 100 µM
TGI [17]: > 100 µM
TGI [18]: > 100 µM
TGI [19]: > 100 µM
TGI [20]: > 100 µM
TGI [21]: > 100 µM
TGI [22]: > 100 µM
TGI [23]: > 100 µM
TGI [24]: > 100 µM
TGI [25]: > 100 µM
TGI [26]: > 100 µM
TGI [27]: > 100 µM
TGI [28]: 90.2 µM
TGI [29]: > 100 µM
TGI [30]: > 100 µM
TGI [31]: > 100 µM
TGI [32]: > 100 µM
TGI [33]: > 100 µM
TGI [34]: > 93.1 µM
TGI [35]: > 100 µM
TGI [36]: 81.9 µM
TGI [37]: > 100 µM
TGI [38]: > 100 µM
TGI [39]: > 100 µM
TGI [40]: > 100 µM
TGI [41]: 48.2 µM
TGI [42]: > 100 µM
TGI [43]: > 100 µM
TGI [44]: > 100 µM
TGI [45]: > 100 µM
TGI [46]: > 100 µM
TGI [47]: > 100 µM
TGI [48]: > 100 µM
TGI [49]: > 100 µM
TGI [50]: > 100 µM
TGI [51]: > 100 µM
TGI [52]: > 100 µM
TGI [53]: > 100 µM
TGI [54]: > 100 µM
TGI [55]: > 100 µM
TGI [56]: > 100 µM
TGI [57]: > 100 µM
TGI [58]: > 100 µM
TGI [59]: > 100 µM
TGI [60]: > 100 µM
TGI [61]: > 100 µM
TGI [62]: > 100 µM
TGI [63]: > 100 µM
TGI [64]: > 100 µM
TGI [65]: > 100 µM
TGI [66]: > 100 µM
